Measured values as given in patent publication US20230087118A1, “IMIDAZO[1,2-a][sequence] DERIVATIVES AND THEIR USE IN THE TREATMENT OF DISEASE” (priority 2019, published 2023).
Where two headings read alike, the source gives them in different places.

Target: T1, IRAK4 (Homo sapiens, UniProt Q9NWZ3)
T1 sequence (Q9NWZ3 1-460): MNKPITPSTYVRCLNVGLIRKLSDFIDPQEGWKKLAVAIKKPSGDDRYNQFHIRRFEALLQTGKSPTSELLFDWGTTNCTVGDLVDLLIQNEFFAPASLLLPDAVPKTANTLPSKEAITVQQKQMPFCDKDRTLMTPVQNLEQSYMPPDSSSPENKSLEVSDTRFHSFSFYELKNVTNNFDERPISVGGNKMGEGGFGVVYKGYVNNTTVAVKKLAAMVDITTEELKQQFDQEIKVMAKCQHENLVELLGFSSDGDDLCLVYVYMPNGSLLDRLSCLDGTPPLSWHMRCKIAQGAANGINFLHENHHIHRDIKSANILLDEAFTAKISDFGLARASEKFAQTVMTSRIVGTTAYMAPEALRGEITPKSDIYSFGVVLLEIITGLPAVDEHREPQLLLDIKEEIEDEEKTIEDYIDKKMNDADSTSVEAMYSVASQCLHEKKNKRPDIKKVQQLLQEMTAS
Assay: 2-hour 10 μM ATP Biochemical Assay (MesoScale Detection format; IRAK4 phosphorylation of biotin labeled IRAK1 activation loop peptide)
Experimental: Compounds of the invention were assessed for their ability to inhibit IRAK4 activity. The inhibitory properties of the compounds of the invention described herein can be evidenced by testing in any one of the following assays.
The 2-hour 10 μM ATP Biochemical Assay employs a MesoScale Detection (MSD) format. The kinase reaction is based on the IRAK4 phosphorylation of a biotin labeled peptide (IRAK1 activation loop sequence 360-389).
The kinase reaction in 30 μl is carried out in wells of a 384 well polypropylene assay plate, with 0.1 nM IRAK4, 1.6 μM of biotinylated peptide substrate and 10 μM ATP in 50 mM Hepes, pH 7.5, 60 mM NaCl, 5 mM MgCl2, 0.25 mM MnCl2, 2 mM DTT, 0.01% BSA, and 1% DMSO (from compound DMSO stocks), for 2 hour at room temperature. The activity is quenched with 11 μl of 70 mM EDTA, pH 8.
To detect the phosphorylated biotinylated peptide substrate, 30 μl of the quenched reaction mixture is added to equivalent wells of a 384 well streptavidin coated MesoScale plate (Meso Scale Discovery #L21SA-1). After a 1 hour incubation of the plate for 1 hour at room temperature with gentle mixing, the plate wells are washed 3 times with 50 mM Tris, pH 7.5, 150 mM NaCl, 0.02% Tween-20.
A 25 μl volume of 1:500 anti-P-Threonine Rabbit polyclonal Antibody plus 1:500 Goat-anti-Rabbit Sulfo Tag Antibody (Meso Scale Discovery R32AB-1) in 50 mM Tris, pH 7.5, 150 mM NaCl, 0.02% Tween-20 plus 2% BSA is then added to each well. After a 1-hour incubation of the plate for 1 hour at room temperature with gentle mixing, the plate wells are washed, 3 times with 50 mM Tris, pH 7.5, 150 mM NaCl, 0.02% Tween-20. A 40 μl volume of 2× MSD Read Buffer (Meso Scale Discovery R92TC-1) is added to each well, and the plate is read immediately in an MSD Plate Reader (Meso Scale Discovery).

COc1cc2nc(C3CCOCC3)cn2cc1C(=O)Nc1cccc(F)c1 [Example 165] was tested, and the IC50 (0.1 nM IRAK4) was 24 nM.

COc1cc2nc(C3CCOCC3)cn2cc1C(=O)Nc1nc(C)c(Cl)s1 [Example 171] showed an IC50 (0.1 nM IRAK4) of 845 nM.

For COc1cc(F)cc(NC(=O)c2cn3cc(C4CCOCC4)nc3cc2OC)c1 [Example 151], the IC50 (0.1 nM IRAK4) was 46 nM.

COc1cc2nc(C3CCOCC3)cn2cc1C(=O)Nc1cnsc1 [Example 138] showed an IC50 (0.1 nM IRAK4) of 65 nM.

In the case of COc1cc2nc(C3CCOCC3)cn2cc1C(=O)Nc1cccc(C)c1C [Example 153], the IC50 (0.1 nM IRAK4) is reported as 19 nM.

CCc1ccccc1NC(=O)c1cn2cc(C3CCOCC3)nc2cc1OC [Example 167] was tested, and the IC50 (0.1 nM IRAK4) was 73 nM.

COc1cc2nc(C3CCOCC3)cn2cc1C(=O)N[C@@H]1C[C@H]1C1CCC1 (racemic) [Example 154] gave an IC50 (0.1 nM IRAK4) of 412 nM.

For COc1cc2nc(C3(OC)CC3)cn2cc1C(=O)Nc1cccc(C(F)(F)F)n1 [Example 34], the IC50 (0.1 nM IRAK4) was 57 nM.

With COc1cc2nc(C3CCOCC3)cn2cc1C(=O)Nc1cc(Cl)c(F)c(Cl)c1 [Example 119] the IC50 (0.1 nM IRAK4) was 792 nM.

COc1cccc(NC(=O)c2cn3cc(CC4COCCO4)nc3cc2OC)n1 (stereo not drawn) [Example 15] gave an IC50 (0.1 nM IRAK4) of 31 nM.

CCOc1cc2nc(C3CCOCC3)cn2cc1C(=O)Nc1cccc(C(F)F)n1 [Example 73] gave an IC50 (0.1 nM IRAK4) of 1 nM.

O=C(Nc1ccn(C(F)F)n1)c1ccc2nc(C3CCOCC3)cn2c1 [Example 49] was tested, and the IC50 (0.1 nM IRAK4) was 350 nM.

COc1cc2nc(C3CCOCC3)cn2cc1C(=O)Nc1cccc(F)c1C [Example 129] showed an IC50 (0.1 nM IRAK4) of 16 nM.

With COc1cc2nc(C3CCOCC3)cn2cc1C(=O)N[C@H]1CC[C@@H](OC)CC1 [Example 161] the IC50 (0.1 nM IRAK4) was 346 nM.

Compound COc1cc2nc(C3CCOCC3)cn2cc1C(=O)N[C@@H]1CCC[C@H](C2CC2)C1 (relative stereo) [Example 177] has an IC50 (0.1 nM IRAK4) of 861 nM.

With COc1cc(C(=O)Nc2cccc(C(F)(F)F)n2)cn2cc(C3CCOCC3)nc12 [Example 75] the IC50 (0.1 nM IRAK4) was 6 nM.

CCc1ncc(F)cc1NC(=O)c1cn2cc(C3CCOCC3)nc2cc1OC [Example 128] was tested, and the IC50 (0.1 nM IRAK4) was 67 nM.

COc1cc2nc(C3CCOCC3)cn2cc1C(=O)Nc1cc(F)c(F)c(C(F)F)c1 [Example 164] showed an IC50 (0.1 nM IRAK4) of 37 nM.

In the case of COc1cc2nc(C3CCOCC3)cn2cc1C(=O)N[C@@]12CCC[C@@H]1C2 (racemic) [Example 149], the IC50 (0.1 nM IRAK4) is reported as 794 nM.

With CCOc1cc2nc(CCCOC)cn2cc1C(=O)Nc1cccc(C(F)F)n1 [Example 85] the IC50 (0.1 nM IRAK4) was 1 nM.

COc1cc2nc(C3CCOC3)cn2cc1C(=O)Nc1cccc(C(F)(F)F)n1 (stereo not drawn) [Example 35] gave an IC50 (0.1 nM IRAK4) of 12 nM.

COc1cc2nc(C3CCOCC3)cn2cc1C(=O)Nc1scnc1C(C)C [Example 150] showed an IC50 (0.1 nM IRAK4) of 23 nM.

Compound COc1cc2nc(C3CCOCC3)cn2cc1C(=O)Nc1ccc(F)c(C(F)F)c1 [Example 159] has an IC50 (0.1 nM IRAK4) of 20 nM.

COc1cc2nc(C3CCOCC3)cn2cc1C(=O)Nc1cc(C)cc(C)n1 [Example 127] showed an IC50 (0.1 nM IRAK4) of 200 nM.

COc1cccc(NC(=O)c2cn3cc(C4(OC)CC4)nc3cc2OC)n1 [Example 14] was tested, and the IC50 (0.1 nM IRAK4) was 26 nM.

In the case of COc1cccc(NC(=O)c2cn3cc(C45CC(C(F)F)(C4)C5)nc3cc2OC)n1 [Example 20], the IC50 (0.1 nM IRAK4) is reported as 3 nM.

With COc1cccc(NC(=O)c2cn3cc(CC(C)C#N)nc3cc2OC)n1 (stereo not drawn) [Example 12] the IC50 (0.1 nM IRAK4) was 32 nM.

COc1cccc(NC(=O)c2cn3cc(C[C@@H]4CCOC4)nc3cc2OC)n1 [Example 51, (R)-7-methoxy-N-(6-methoxypyridin-2-yl)-2-((tetrahydrofuran-3-yl)methyl)imidazo[1,2-a]pyridine-6-carboxamide] gave an IC50 (read-out: IRAK4 Biochemical Assay (10 μM ATP, 2 h) IC50, 0.1 nM IRAK4) of 3 nM.

In the case of COc1cc2nc(C3CCOCC3)cn2cc1C(=O)Nc1ccns1 [Example 156], the IC50 (0.1 nM IRAK4) is reported as 147 nM.

With COc1cc2nc(C3CCOCC3)cn2cc1C(=O)NC1CCCC2C1C2(F)F (stereo not drawn) [Example 117] the IC50 (0.1 nM IRAK4) was 567 nM.
